{"source": "ChEMBL document CHEMBL1139002", "about": "“Synthesis and biological evaluation of simplified mycothiazole analogues” (2006)", "key": {"[1]": {"tested_on": "Nippostrongylus brasiliensis", "assay": "Anthelmintic activity against Nippostrongylus brasiliensis", "type": "functional"}, "[2]": {"tested_on": "HCT-15", "assay": "Cytotoxicity against HCT15 cell line by SRB assay", "type": "functional, Homo sapiens"}}}
{"smiles": "C=CCC1COC(C(C)(C)C(C/C=C\\CNC(=O)OC)OC(C)=O)=N1", "note": "(stereo not drawn)", "values": [{"measurement": "LC50", "setting": "[1]", "result": 40, "unit": "µM"}, {"measurement": "IG50", "setting": "[2]", "result": 430, "unit": "µM"}]}
{"smiles": "C=CC/C=C\\C[C@@H]1CSC(C(C)(C)C(O)C/C=C\\CNC(=O)OC)=N1", "note": "(stereo partly drawn)", "values": [{"measurement": "IG50", "setting": "[2]", "result": 13, "unit": "µM"}]}
{"smiles": "C=CC/C=C\\C[C@@H]1CSC(C(C)(C)C(C/C=C\\CNC(=O)OC)OC(C)=O)=N1", "note": "(stereo partly drawn)", "values": [{"measurement": "LC50", "setting": "[1]", "result": "> 300", "unit": "µM"}]}
{"smiles": "C=CC/C=C\\C[C@@H]1COC(C(C)(C)C(C/C=C\\CNC(=O)OC)OC(C)=O)=N1", "note": "(stereo partly drawn)", "values": [{"measurement": "LC50", "setting": "[1]", "result": 40, "unit": "µM"}, {"measurement": "IG50", "setting": "[2]", "result": 150, "unit": "µM"}]}
{"smiles": "CCCSc1ccc2[nH]c(NC(=O)OC)nc2c1", "note": "[ALBENDAZOLE]", "values": [{"measurement": "LC50", "setting": "[1]", "result": 0.34, "unit": "µM"}]}
{"smiles": "CO[C@@]12[C@H](COC(N)=O)C3=C(C(=O)C(C)=C(N)C3=O)N1C[C@@H]1N[C@@H]12", "note": "[MITOMYCIN]", "values": [{"measurement": "IG50", "setting": "[2]", "result": 1.6, "unit": "µM"}]}
